Laboratory results as given in patent US12338237B2, “Derivatives having 1,2,3,4-tetrahydronaphthalene moiety or pharmaceutically acceptable salt thereof and pharmaceutical compositions comprising the same” (YUHAN CORPORATION, priority 2019, dated 2025).

What was measured:
[1] = test system: GM1 production; test: cells; assay type: cell-based; conditions: Homo sapiens, Jurkat, 72 h
[2] = target: glucosylceramide synthase (GCS) (Homo sapiens (Human), UniProt Q16739); test: Evaluation of inhibitory activities against GCS (enzyme reaction with A549 cell lysate, NBD C6-ceramide, HPLC fluorescence); assay type: biochemical; conditions: GCS activity in A549 cell lysate, 37° C. for 90 minutes
Chain of glucosylceramide synthase (GCS) (Q16739 whole entry, looked up): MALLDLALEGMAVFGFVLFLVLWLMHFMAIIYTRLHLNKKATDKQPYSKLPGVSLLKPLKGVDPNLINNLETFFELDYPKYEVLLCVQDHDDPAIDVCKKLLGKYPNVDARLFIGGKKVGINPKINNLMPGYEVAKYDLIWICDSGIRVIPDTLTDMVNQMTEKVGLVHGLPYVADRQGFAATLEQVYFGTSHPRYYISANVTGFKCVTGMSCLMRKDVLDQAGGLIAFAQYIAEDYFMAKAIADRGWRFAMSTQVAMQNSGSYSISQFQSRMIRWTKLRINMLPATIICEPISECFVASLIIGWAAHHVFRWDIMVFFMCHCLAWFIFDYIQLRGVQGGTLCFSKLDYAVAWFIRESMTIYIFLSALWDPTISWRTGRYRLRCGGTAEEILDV
How it was run: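 Lysate of A549 cells in 50 mM HEPES pH 7.3 incubated with test compound and NBD C6-ceramide at 37 °C for 90 min; lipids extracted with chloroform/methanol and GlcCer and ceramide peaks quantified by HPLC fluorescence. Activity from GlcCer area fraction, normalised between DMSO and ibiglustat controls.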

Question: How did the IC50 [1] turn out when `O=C(NC1CCCc2cc(-c3cc(F)ccc3F)ccc21)O[C@@H]1CN2CCC1CC2` (stereo partly drawn) [Example 16, (S)-quinuclidin-3-yl (6-(2,5-difluorophenyl)-1,2,3,4-tetrahydronaphthalen-1-yl)carbamate] was run?
Answer: 34 nM

Question: What about the IC50 [2] of the same compound?
Answer: 3.96 nM

Question: Which results are given for `CC(C)Oc1cccc(-c2ccc3c(c2)CCC2(CC2)C3NC(=O)O[C@@H]2CN3CCC2CC3)c1` (stereo partly drawn) [Example 208, (S)-quinuclidin-3-yl (6′-(3-isopropoxyphenyl)-3′,4′-dihydro-1′H-spiro[cyclopropane-1,2′-naphthalen]-1′-yl)carbamate]?
Answer: IC50 [1]: 47.7 nM; IC50 [2]: 21.2 nM

Question: `O=C(NC1CCCc2ccc(-c3ccncc3)cc21)O[C@@H]1CN2CCC1CC2` (stereo partly drawn) [Example 72, (S)-quinuclidin-3-yl (7-(pyridin-4-yl)-1,2,3,4-tetrahydronaphthalen-1-yl)carbamate] was tested. Which IC50 [1] did it give?
Answer: 116 nM

Question: And the IC50 [2]?
Answer: 66 nM

Question: What does the source list for `CC(C)(C)c1ccc(-c2ccc3c(c2)CCCC3NC(=O)O[C@@H]2CN3CCC2CC3)cc1` (stereo partly drawn) [Example 36, (S)-quinuclidin-3-yl (6-(4-(tert-butyl)phenyl)-1,2,3,4-tetrahydronaphthalen-1-yl)carbamate]?
Answer: IC50 [1]: 339 nM; IC50 [2]: 22.4 nM

Question: How did the IC50 [1] turn out when `CCc1ccc(-c2ccc3c(c2)CCC2(CC2)C3NC(=O)O[C@@H]2CN3CCC2CC3)cc1` (stereo partly drawn) [Example 221, (S)-quinuclidin-3-yl (6′-(4-ethylphenyl)-3′,4′-dihydro-1′H-spiro[cyclopropane-1,2′-naphthalen]-1′-yl)carbamate] was run?
Answer: 18.8 nM

Question: And the IC50 [2]?
Answer: 2.01 nM

Question: Which results are given for `CC(=O)c1sccc1-c1ccc2c(c1)CCC(C)(C)C2NC(=O)O[C@@H]1CN2CCC1CC2` (stereo partly drawn) [Example 150, (S)-quinuclidin-3-yl (6-(2-acetylthiophen-3-yl)-2,2-dimethyl-1,2,3,4-tetrahydronaphthalen-1-yl)carbamate]?
Answer: IC50 [1]: 17.1 nM; IC50 [2]: 8.7 nM

Question: With `CC1(C)CCc2cc(-c3cc(Cl)cc(Cl)c3)ccc2C1NC(=O)O[C@@H]1CN2CCC1CC2` (stereo partly drawn) [Example 107, (S)-quinuclidin-3-yl (6-(3,5-dichlorophenyl)-2,2-dimethyl-1,2,3,4-tetrahydronaphthalen-1-yl)carbamate] as the compound, how does the IC50 [1] read?
Answer: 6.5 nM

Question: What about the IC50 [2] of the same compound?
Answer: 5.86 nM

Question: Which results are given for `CC1(C)CCc2ccc(-c3ccccc3Cl)cc2C1NC(=O)O[C@@H]1CN2CCC1CC2` (stereo partly drawn) [Example 160, (S)-quinuclidin-3-yl (7-(2-chlorophenyl)-2,2-dimethyl-1,2,3,4-tetrahydronaphthalen-1-yl)carbamate]?
Answer: IC50 [1]: 67.7 nM; IC50 [2]: 14.5 nM

Question: What does the source list for `O=C(NC1CCCc2cc(-c3cc(F)c(F)cc3F)ccc21)O[C@@H]1CN2CCC1CC2` (stereo partly drawn) [Example 21, (S)-quinuclidin-3-yl (6-(2,4,5-trifluorophenyl)-1,2,3,4-tetrahydronaphthalen-1-yl)carbamate]?
Answer: IC50 [1]: 42.1 nM; IC50 [2]: 2.53 nM

Question: Which IC50 [1] does the source give for `CC1(C)CCc2cc(-c3cc(F)c(F)cc3F)ccc2C1NC(=O)O[C@@H]1CN2CCC1CC2` (stereo partly drawn) [Example 108, (S)-quinuclidin-3-yl (2,2-dimethyl-6-(2,4,5-trifluorophenyl)-1,2,3,4-tetrahydronaphthalen-1-yl)carbamate] here?
Answer: 6.7 nM

Question: And the IC50 [2]?
Answer: 2.55 nM

Question: For `O=C(NC1CCCc2ccc(-c3ccc4c(c3)OCO4)cc21)O[C@@H]1CN2CCC1CC2` (stereo partly drawn) [Example 84, (S)-quinuclidin-3-yl (7-(benzo[d]dioxol-5-yl)-1,2,3,4-tetrahydronaphthalen-1-yl)carbamate], which IC50 [1] is on record?
Answer: 144 nM

Question: What about the IC50 [2] of the same compound?
Answer: 75.6 nM

Question: Which IC50 [1] does the source give for `COCCOc1ccc(-c2ccc3c(c2)CCCC3NC(=O)O[C@@H]2CN3CCC2CC3)cc1` (stereo partly drawn) [Example 25, (S)-quinuclidin-3-yl (6-(4-(2-methoxyethoxy)phenyl)-1,2,3,4-tetrahydronaphthalen-1-yl)carbamate] here?
Answer: 45.1 nM

Question: What about the IC50 [2] of the same compound?
Answer: 15 nM

Question: Which results are given for `COc1ccc(-c2ccc3c(c2)CCC(C)(C)C3NC(=O)O[C@@H]2CN3CCC2CC3)cc1F` (stereo partly drawn) [Example 126, (S)-quinuclidin-3-yl (6-(3-fluoro-4-methoxyphenyl)-2,2-dimethyl-1,2,3,4-tetrahydronaphthalen-1-yl)carbamate]?
Answer: IC50 [1]: 1.89 nM; IC50 [2]: 0.83 nM

Question: What does the source list for `CC(C)Oc1ccc(-c2cc3c(cc2F)C(NC(=O)O[C@@H]2CN4CCC2CC4)C(C)(C)CC3)cc1` (stereo partly drawn) [Example 232, (S)-quinuclidin-3-yl (7-fluoro-6-(4-isopropoxyphenyl)-2,2-dimethyl-1,2,3,4-tetrahydronaphthalen-1-yl)carbamate]?
Answer: IC50 [1]: 2.7 nM; IC50 [2]: 0.29 nM

Question: With `COc1cc2c(cc1-c1ccc(OC(C)C)cc1)CCC(C)(C)C2NC(=O)O[C@@H]1CN2CCC1CC2` (stereo partly drawn) [Example 238, (S)-quinuclidin-3-yl (6-(4-isopropoxyphenyl)-7-methoxy-2,2-dimethyl-1,2,3,4-tetrahydronaphthalen-1-yl)carbamate] as the compound, how does the IC50 [1] read?
Answer: 3.5 nM

Question: What about the IC50 [2] of the same compound?
Answer: 0.55 nM

Question: Which results are given for `CC1(C)CCc2ccc(-c3ccccc3C(F)(F)F)cc2C1NC(=O)O[C@@H]1CN2CCC1CC2` (stereo partly drawn) [Example 161, (S)-quinuclidin-3-yl (2,2-dimethyl-7-(2-(trifluoromethyl)phenyl)-1,2,3,4-tetrahydronaphthalen-1-yl)carbamate]?
Answer: IC50 [1]: 122 nM; IC50 [2]: 26.5 nM

Question: How did the IC50 [1] turn out when `Cc1ccc(-c2ccc3c(c2)CCC(C)(C)C3NC(=O)O[C@@H]2CN3CCC2CC3)cc1` (stereo partly drawn) [Example 98, (S)-quinuclidin-3-yl (2,2-dimethyl-6-(p-tolyl)-1,2,3,4-tetrahydronaphthalen-1-yl)carbamate] was run?
Answer: 2.05 nM

Question: And the IC50 [2]?
Answer: 1.7 nM

Question: `O=C(NC1CCCc2ccc(-c3ccc(F)cc3)cc21)O[C@@H]1CN2CCC1CC2` (stereo partly drawn) [Example 55, (S)-quinuclidin-3-yl (7-(4-fluorophenyl)-1,2,3,4-tetrahydronaphthalen-1-yl)carbamate] was tested. Which IC50 [1] did it give?
Answer: 110 nM

Question: What about the IC50 [2] of the same compound?
Answer: 34.1 nM

Question: For `CCc1ccc(-c2ccc3c(c2)CCCC3NC(=O)O[C@@H]2CN3CCC2CC3)cc1` (stereo partly drawn) [Example 31, (S)-quinuclidin-3-yl (6-(4-ethylphenyl)-1,2,3,4-tetrahydronaphthalen-1-yl)carbamate], which IC50 [1] is on record?
Answer: 2.92 nM

Question: What about the IC50 [2] of the same compound?
Answer: 6.58 nM

Question: For `O=C(NC1CCCc2cc(-c3ccc(OC(F)F)cc3)ccc21)O[C@@H]1CN2CCC1CC2` (stereo partly drawn) [Example 13, (S)-quinuclidin-3-yl (6-(4-(difluoromethoxy)phenyl)-1,2,3,4-tetrahydronaphthalen-1-yl)carbamate], which IC50 [1] is on record?
Answer: 143 nM

Question: What about the IC50 [2] of the same compound?
Answer: 23.5 nM

Question: `O=C(NC1CCCc2cc(-c3ccc(F)c(F)c3F)ccc21)O[C@@H]1CN2CCC1CC2` (stereo partly drawn) [Example 20, (S)-quinuclidin-3-yl (6-(2,3,4-trifluorophenyl)-1,2,3,4-tetrahydronaphthalen-1-yl)carbamate] was tested. Which IC50 [1] did it give?
Answer: 84.4 nM

Question: What about the IC50 [2] of the same compound?
Answer: 7.16 nM

Question: Which IC50 [1] does the source give for `CC1(C)CCc2cc(-c3cccc(C(F)(F)F)c3)ccc2C1NC(=O)O[C@@H]1CN2CCC1CC2` (stereo partly drawn) [Example 92, (S)-quinuclidin-3-yl (2,2-dimethyl-6-(3-(trifluoromethyl)phenyl)-1,2,3,4-tetrahydronaphthalen-1-yl)carbamate] here?
Answer: 2.72 nM

Question: What about the IC50 [2] of the same compound?
Answer: 1.04 nM

Question: With `O=C(NC1CCCc2cc(-c3cccc(F)c3)ccc21)O[C@@H]1CN2CCC1CC2` (stereo partly drawn) [Example 5, (S)-quinuclidin-3-yl (6-(3-fluorophenyl)-1,2,3,4-tetrahydronaphthalen-1-yl)carbamate] as the compound, how does the IC50 [1] read?
Answer: 27.1 nM

Question: And the IC50 [2]?
Answer: 0.989 nM

Question: For `O=C(NC1CCCc2cc(-c3cccc(F)c3F)ccc21)O[C@@H]1CN2CCC1CC2` (stereo partly drawn) [Example 19, (S)-quinuclidin-3-yl (6-(2,3-difluorophenyl)-1,2,3,4-tetrahydronaphthalen-1-yl)carbamate], which IC50 [1] is on record?
Answer: 67.4 nM

Question: And the IC50 [2]?
Answer: 3.44 nM

Question: How did the IC50 [1] turn out when `COc1cccc(-c2ccc3c(c2)CCC(C)(C)C3NC(=O)O[C@@H]2CN3CCC2CC3)c1` (stereo partly drawn) [Example 121, (S)-quinuclidin-3-yl (6-(3-methoxyphenyl)-2,2-dimethyl-1,2,3,4-tetrahydronaphthalen-1-yl)carbamate] was run?
Answer: 0.0387 nM

Question: What about the IC50 [2] of the same compound?
Answer: 5.51 nM

Question: Which results are given for `CC1(C)CCc2cc(-c3cc(F)cc(F)c3)ccc2C1NC(=O)O[C@@H]1CN2CCC1CC2` (stereo partly drawn) [Example 104, (S)-quinuclidin-3-yl (6-(3,5-difluorophenyl)-2,2-dimethyl-1,2,3,4-tetrahydronaphthalen-1-yl)carbamate]?
Answer: IC50 [1]: 2.27 nM; IC50 [2]: 2.25 nM

Question: What does the source list for `CCOc1cccc(-c2ccc3c(c2)CCC2(CC2)C3NC(=O)O[C@@H]2CN3CCC2CC3)c1` (stereo partly drawn) [Example 218, (S)-quinuclidin-3-yl (6′-(3-ethoxyphenyl)-3′,4′-dihydro-1′H-spiro[cyclopropane-1,2′-naphthalen]-1′-yl)carbamate]?
Answer: IC50 [1]: 63.3 nM; IC50 [2]: 19.8 nM

Question: Which results are given for `COc1cccc(OC)c1-c1ccc2c(c1)CCC(C)(C)C2NC(=O)O[C@@H]1CN2CCC1CC2` (stereo partly drawn) [Example 136, (S)-quinuclidin-3-yl (6-(2,6-dimethoxyphenyl)-2,2-dimethyl-1,2,3,4-tetrahydronaphthalen-1-yl)carbamate]?
Answer: IC50 [1]: 21.2 nM; IC50 [2]: 9.22 nM

Question: For `Cc1ccc(-c2ccc3c(c2)C(NC(=O)O[C@@H]2CN4CCC2CC4)C2(CC3)CC2)cc1` (stereo partly drawn) [Example 183, (S)-quinuclidin-3-yl (7′-(p-tolyl)-3′,4′-dihydro-1′H-spiro[cyclopropane-1,2′-naphthalen]-1′-yl)carbamate], which IC50 [1] is on record?
Answer: 145 nM

Question: What about the IC50 [2] of the same compound?
Answer: 12.9 nM

Question: Which results are given for `CC1(C)CCc2cc(-c3ccc(OC(F)F)cc3)ccc2C1NC(=O)O[C@@H]1CN2CCC1CC2` (stereo partly drawn) [Example 99, (S)-quinuclidin-3-yl (6-(4-(difluoromethoxy)phenyl)-2,2-dimethyl-1,2,3,4-tetrahydronaphthalen-1-yl)carbamate]?
Answer: IC50 [1]: 2.56 nM; IC50 [2]: 1.65 nM

Question: How did the IC50 [1] turn out when `O=C(NC1c2cc(-c3cccc(F)c3)ccc2CCC12CC2)O[C@@H]1CN2CCC1CC2` (stereo partly drawn) [Example 175, (S)-quinuclidin-3-yl (7′-(3-fluorophenyl)-3′,4′-dihydro-1′H-spiro[cyclopropane-1,2′-naphthalen]-1′-yl)carbamate] was run?
Answer: 167 nM

Question: And the IC50 [2]?
Answer: 14.8 nM

Question: Which results are given for `CC1(C)CCc2ccc(-c3ccc(F)cc3)cc2C1NC(=O)O[C@@H]1CN2CCC1CC2` (stereo partly drawn) [Example 151, (S)-quinuclidin-3-yl (7-(4-fluorophenyl)-2,2-dimethyl-1,2,3,4-tetrahydronaphthalen-1-yl)carbamate]?
Answer: IC50 [1]: 33.4 nM; IC50 [2]: 7.27 nM
